Tests used:
Type in all cases: cell-based
[1] = tested on: LPS-induced NO production in RAW 264.7 macrophage cells; experiment: Inhibition of LPS-induced NO production (nitrite, Griess reagent); conditions: for inhibition of NO production (in words): LPS-induced RAW264.7 macrophages
Description: Previous studies have already reported on the anti-inflammatory effects of components obtained from A. membranaceus. Thus, we also investigated the inhibitory effects of compounds 1–5 on NO production by using the Griess reaction to measure nitrite, a soluble oxidation product of NO, in the culture medium of LPS-induced RAW 264.7 macrophages.
(§1) Assays for NO production and cell viability were carried out as previously described. Briefly, RAW 264.7 macrophages were harvested and seeded in 24-well plates (3 × 10^5 cells/well) for the measurement of NO production. The plates were pretreated with various concentrations of samples for 1 h and incubated with LPS (1 μg/mL) for 7 h. The amount of NO was determined by the nitrite concentration in the cultured RAW264.7 macrophage supernatants using the Griess reagent. The cell viability was evaluated by MTT reduction.

[2] = Cell viability by MTT reduction; conditions: mouse, at a concentration of 100 μM, RAW 264.7 cells, MTT reduction, mean ± SD of three independent experiments
Description: as §1

RAW 264.7 macrophages = experiment: Cell viability by MTT reduction; conditions: RAW 264.7 cells treated with compounds
Description: as §1

SMILES	IC50 ([1]; Mus musculus, RAW264.7, LPS-activated RAW 264.7 cells, pretreated 1 h with compounds, then LPS (1 μg/mL) for 7 h, mean ± SD of three independent experiments)	viability at 8 h, 100 µM [2]	inhibition of NO production (in words) [1]	viability at 8 h, 100 µM ([2]; RAW 264.7 macrophages)	cell toxicity / influence on cell viability (in words) (RAW 264.7 macrophages)
O=C(O)/C=C/c1ccc(O)c(O)c1 [Caffeic acid, reference compound]	830 ± 1150 nM	82.2 ± 1.64%	–	–	–
CC(=O)OC1C(OC2CCC34CC35CCC3(C)C(C(C)CCC(O)C(C)(C)O)CCC3(C)C5CC(OC3OC(CO)C(O)C(O)C3O)C4C2(C)C)OCC(O)C1O [Compound 1, 3-O-β-(2'-O-acetyl)-D-xylopyranosyl-6-O-β-D-glucopyranosyl-(24S)-3β,6α,24α,25-tetrahydroxy-9,19-cyclolanostane]	–	–	significant inhibition of NO production	93.2 ± 6.96%	without cytotoxicity
CC(=O)OC1C(O)COC(OC2CCC34CC35CCC3(C)C(C(C)CCC(O)C(C)(C)O)C(O)CC3(C)C5CC(OC3OC(CO)C(O)C(O)C3O)C4C2(C)C)C1OC(C)=O (centres unmarked) [Compound 2, agroastragaloside I]	–	–	–	54.5 ± 1.21%	Some cell toxicity was observed
CC(=O)OC1C(OC2CCC34CC35CCC3(C)C(C(C)CCC(O)C(C)(C)O)C(O)CC3(C)C5CC(OC3OC(CO)C(O)C(O)C3O)C4C2(C)C)OCC(O)C1O (centres unmarked) [Compound 3, agroastragaloside II]	–	–	–	47.6 ± 3.4%	Some cell toxicity was observed
CC(=O)O[C@@H]1[C@@H](O)[C@H](O[C@H]2CC[C@]34C[C@]35CC[C@]3(C)[C@@H]([C@@]6(C)CC[C@@H](C(C)(C)O)O6)[C@@H](O)C[C@@]3(C)[C@@H]5C[C@H](O[C@@H]3O[C@H](CO)[C@@H](O)[C@H](O)[C@H]3O)[C@H]4C2(C)C)OC[C@H]1O [Compound 4, isoastragaloside II]	–	–	–	69 ± 1.82%	Some cell toxicity was observed
CC(C)(O)[C@@H]1CC[C@](C)([C@H]2[C@@H](O)C[C@@]3(C)[C@@H]4C[C@H](O[C@@H]5O[C@H](CO)[C@@H](O)[C@H](O)[C@H]5O)[C@H]5C(C)(C)[C@@H](O[C@@H]6OC[C@@H](O)[C@H](O)[C@H]6O)CC[C@@]56C[C@@]46CC[C@]23C)O1 [Compound 5, astragaloside IV]	–	94.4 ± 4.33%	significant inhibition of NO production	–	without cytotoxicity

From paper PMC6269660, “Anti-Inflammatory Cycloartane-Type Saponins of Astragalus membranaceus” (Molecules, 2013)
